T1: leucine aminopeptidase from Leishmania donovani (LdLAP) (Leishmania donovani, UniProt A0A3S7WXR2)
T1 sequence (A0A3S7WXR2 1-565): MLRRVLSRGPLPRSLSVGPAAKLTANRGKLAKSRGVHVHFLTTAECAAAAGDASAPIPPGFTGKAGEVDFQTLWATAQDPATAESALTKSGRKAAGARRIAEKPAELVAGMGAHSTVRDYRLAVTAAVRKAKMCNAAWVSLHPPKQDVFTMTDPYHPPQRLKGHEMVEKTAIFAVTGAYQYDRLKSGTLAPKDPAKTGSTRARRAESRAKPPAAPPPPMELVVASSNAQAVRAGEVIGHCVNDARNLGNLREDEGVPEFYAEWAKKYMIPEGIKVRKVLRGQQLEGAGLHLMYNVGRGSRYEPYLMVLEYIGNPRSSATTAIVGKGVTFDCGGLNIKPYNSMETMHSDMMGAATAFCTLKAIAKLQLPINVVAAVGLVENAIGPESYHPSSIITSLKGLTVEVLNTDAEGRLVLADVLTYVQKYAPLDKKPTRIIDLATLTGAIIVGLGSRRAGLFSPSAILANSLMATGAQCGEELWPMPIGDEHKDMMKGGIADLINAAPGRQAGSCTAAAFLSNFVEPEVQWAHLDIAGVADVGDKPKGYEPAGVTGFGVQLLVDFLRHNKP


Columns and labels:
[1] = target: T1, leucine aminopeptidase from Leishmania donovani (LdLAP); experiment: Leu-AMC fluorogenic aminopeptidase assay with double-reciprocal plots; format: biochemical
purified protein = substrate: Cc1cc(=O)oc2cc(NC(=O)[C@@H](N)CC(C)C)ccc12; experiment: purified protein; settings: Mn(II)

Molecule	Ki [1] [nM]	Km (purified protein) [µM]	kcat/Km (purified protein) [M⁻¹ s⁻¹]
CCCCC[C@H](CC(=O)NO)C(=O)N[C@H](C(=O)N1CCC[C@H]1CO)C(C)C [actinonin]	2.7		
CC(C)C[C@H](NC(=O)[C@@H](O)[C@H](N)Cc1ccccc1)C(=O)O [bestatin]	4.38		
leucine aminopeptidase from Leishmania donovani (LdLAP) (Leishmania donovani) (protein) MLRRVLSRGPLPRSLSVGPAAKLTANRGKLAKSRGVHVHFLTTAECAAAAGDASAPIPPGFTGKAGEVDFQTLWATAQDPATAESALTKSGRKAAGARRIAEKPAELVAGMGAHSTVRDYRLAVTAAVRKAKMCNAAWVSLHPPKQDVFTMTDPYHPPQRLKGHEMVEKTAIFAVTGAYQYDRLKSGTLAPKDPAKTGSTRARRAESRAKPPAAPPPPMELVVASSNAQAVRAGEVIGHCVNDARNLGNLREDEGVPEFYAEWAKKYMIPEGIKVRKVLRGQQLEGAGLHLMYNVGRGSRYEPYLMVLEYIGNPRSSATTAIVGKGVTFDCGGLNIKPYNSMETMHSDMMGAATAFCTLKAIAKLQLPINVVAAVGLVENAIGPESYHPSSIITSLKGLTVEVLNTDAEGRLVLADVLTYVQKYAPLDKKPTRIIDLATLTGAIIVGLGSRRAGLFSPSAILANSLMATGAQCGEELWPMPIGDEHKDMMKGGIADLINAAPGRQAGSCTAAAFLSNFVEPEVQWAHLDIAGVADVGDKPKGYEPAGVTGFGVQLLVDFLRHNKP		57.29	5820
